Target: POLRMT (Homo sapiens, UniProt O00411)
Experiment: homogeneous TR-FRET assay of mitochondrial transcription (inhibition of POLRMT)
Assay type: biochemical
Details: isoquinolinone compounds (Table 1)
Experimental: The inhibitory activity of the compounds of the present invention against POLRMT were determined by assays based on Bergbrede, T., et al., “An adaptable high-throughput technology enabling the identification of specific transcription modulators,” SLAC Discov., 22, 378-386 (2017).
The ability of some compounds of the present invention to inhibit POLRMT were determined in a homogeneous TR-FRET Assay using high-throughput screening in a 384-well plate format. This method is used to monitor the activity of mitochondrial transcription through measurement of its product, a 407 bp long RNA transcript. Detection of the product is facilitated by hybridization of two DNA-oligonucleotide probes to specific and adjacent sequences within the RNA product sequence. Upon annealing of the probes, two fluorophores are coupled directly to an acceptor nucleotide probe (ATTO647, 5′), or introduced via a coupled streptavidin with a biotinylated donor nucleotide probe (Europium cryptate) that is brought into sufficient proximity to serve as a fluorescence-donor-acceptor pair. Thus, a FRET signal at 665 nm is generated upon excitation at 340 nm.
Proteins used as transcription factors (POLRMT: NP_005026.3, TFAM: NP_003192.1, TFB2M: NP_071761.1) are diluted from their stocks to working concentrations of 1 μM, 20 μM and 4 μM respectively, in a dilution buffer containing 20 mM Tris-HCl (pH 8.0), 200 mM NaCl, 10% (v/v) glycerol, 1 mM Dithiothreitol (DTT), 0.5 mM EDTA.
DNA template is a pUC18 plasmid with the mitochondrial light strand promotor sequence (1-477) cloned between HindIII and BamHI sites. The DNA template is restriction linearized proximal to the promotor 3′-end (pUC-LSP).
The reaction mixture (10 uL) containing 7.5 nM POLRMT, 15 nM of TFB2M, 30 nM of TFAM, 0.5 nM of DNA template and 500 μM nucleotide triphosphate mix (NTPs) in a reaction buffer (containing 10 mM Tris-HCl (pH 7.5), 10 mM MgCl2, 40 mM NaCl, 10 mM DTT, 0.005% (w/v) Tween-20, 160 units/ml Rnase inhibitor and 0.1 mg/mL BSA) are dispensed to compounds in microplates, using a Thermo Multidrop® dispenser, and incubated at 37° C. in a VWR INCU-Line incubator for 60 minutes after mixing. No nucleotide triphosphate mix is added to negative control samples. Microplates with compounds to be tested in the assay are prepared from 10 mM compound stocks in 100% DMSO, equal amounts of DMSO without any compound are added to positive control and negative control samples.
During the incubation, a mix of the detection reagents is prepared in a buffer such that the enzymatic reaction is terminated due to chelating of Mg-ions and increased ionic strength, containing 50 mM Tris-HCl (pH 7.5), 700 mM NaCl, 20 mM EDTA, and 0.010% (w/v) Tween-20. Europium-streptavidin is pre-incubated with a 200-fold molar excess of a random sequence oligonucleotide to block unspecific binding of oligo, for two hours at ambient temperature in the dark. Afterwards, the blocked Europium-streptavidin is kept on ice until use.
At the end of the enzymatic reaction time, 5 μL detection oligo mix in the detection buffer is added, and assay plates are mixed and kept at ambient temperature for one hour, protected from light. The concentration of the Acceptor nucleotide oligo (e.g., ATTO647N-5′-[…]-3′) and Donor nucleotide oligo (e.g., bio-5′-AACACATCTCT(-bio)GCCAAACCCCA-bio-3′) in each assay well is 1 nM, and 3 nM, respectively.
After incubation with oligo mix, 5 μL of pre-blocked Europium-streptavidin reagent is dispensed to each assay well, assay plates are again mixed and kept at ambient temperature for one hour, protected from light.
The generated signal is measured with BMG Pherastar microtiter plate reader with a TRF light unit, using excitation at 340 nm, an integration time of 200 μs, and a delay time of 100 μs, before detection at 620 nm and 665 nm. The ratio of donor- and acceptor-fluorescence is used as a measure of the generated transcript product (i.e. enzymatic activity).

Sequence of POLRMT (O00411 42-1230): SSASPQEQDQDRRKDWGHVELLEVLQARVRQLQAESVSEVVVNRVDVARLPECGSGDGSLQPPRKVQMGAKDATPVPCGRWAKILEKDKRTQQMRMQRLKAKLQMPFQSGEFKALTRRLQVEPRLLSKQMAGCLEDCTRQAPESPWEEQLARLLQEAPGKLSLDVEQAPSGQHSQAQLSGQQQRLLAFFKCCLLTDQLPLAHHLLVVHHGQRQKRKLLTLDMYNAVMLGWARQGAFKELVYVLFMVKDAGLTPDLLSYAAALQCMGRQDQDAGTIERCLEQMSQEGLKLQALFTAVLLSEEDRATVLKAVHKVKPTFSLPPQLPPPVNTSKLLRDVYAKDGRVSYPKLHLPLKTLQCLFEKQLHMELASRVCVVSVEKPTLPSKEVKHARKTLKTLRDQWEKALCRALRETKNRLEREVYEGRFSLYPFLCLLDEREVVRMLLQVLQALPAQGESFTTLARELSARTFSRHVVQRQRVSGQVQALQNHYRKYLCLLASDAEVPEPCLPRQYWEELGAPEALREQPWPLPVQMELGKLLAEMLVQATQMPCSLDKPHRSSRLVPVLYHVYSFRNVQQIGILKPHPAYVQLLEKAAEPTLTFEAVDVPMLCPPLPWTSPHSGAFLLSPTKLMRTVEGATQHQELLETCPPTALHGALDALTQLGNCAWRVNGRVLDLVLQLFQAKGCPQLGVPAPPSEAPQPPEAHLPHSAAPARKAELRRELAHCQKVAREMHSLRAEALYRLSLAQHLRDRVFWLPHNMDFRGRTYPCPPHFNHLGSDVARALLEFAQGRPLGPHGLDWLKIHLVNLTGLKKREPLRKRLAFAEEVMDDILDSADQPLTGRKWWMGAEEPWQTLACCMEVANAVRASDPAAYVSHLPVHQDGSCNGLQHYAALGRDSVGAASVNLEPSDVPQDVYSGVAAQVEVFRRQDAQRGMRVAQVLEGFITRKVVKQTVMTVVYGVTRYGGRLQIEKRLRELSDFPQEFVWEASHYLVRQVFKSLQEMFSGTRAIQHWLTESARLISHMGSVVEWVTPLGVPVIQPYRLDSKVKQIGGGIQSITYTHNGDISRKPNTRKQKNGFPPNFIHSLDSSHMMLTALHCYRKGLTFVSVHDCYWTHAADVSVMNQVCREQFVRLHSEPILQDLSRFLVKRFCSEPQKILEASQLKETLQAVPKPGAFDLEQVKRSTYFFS

| IC50 [nM] | Structure (SMILES) |
| --- | --- |
| 50 | C[C@@H](Oc1ccc2c(-c3ccc(F)cc3Cl)c[nH]c(=O)c2c1)C(=O)N1CCC(C(=O)O)CC1 [Example 64, (R)-1-(2-((4-(2-chloro-4-fluorophenyl)-1-oxo-1,2-dihydroisoquinolin-7-yl)oxy)propanoyl)piperidine-4-carboxylic acid] |
| 30 | Cc1ccccc1-c1c[nH]c(=O)c2cc(OCC(F)(F)F)ccc12 [Example 65, 4-(o-tolyl)-7-(2,2,2-trifluoroethoxy)isoquinolin-1(2H)-one] |
| 5000 | Cc1ccccc1-c1c[nH]c(=O)c2cc(N(C)CC(N)=O)ccc12 [Example 66, 2-(methyl(1-oxo-4-(o-tolyl)-1,2-dihydroisoquinolin-7-yl)amino)acetamide] |
| 12000 | Cc1ccccc1-c1c[nH]c(=O)c2cc(NC(C)C(N)=O)ccc12 (stereo not shown) [Example 67, 2-((1-oxo-4-(o-tolyl)-1,2-dihydroisoquinolin-7-yl)amino)propanamide] |
| 11000 | Cc1ccccc1-c1c[nH]c(=O)c2cc(NC(C)C(N)=O)ccc12 (stereo not shown) [Example 68] |
| 12000 | Cc1ccccc1-c1c[nH]c(=O)c2cc(NC(C)C(N)=O)ccc12 (stereo not shown) [Example 69] |
| 8000 | Cc1ccccc1-c1c[nH]c(=O)c2cc(NCC(N)=O)ccc12 [Example 70, 2-((1-oxo-4-(o-tolyl)-1,2-dihydroisoquinolin-7-yl)amino)acetamide] |
| 1000 | Cc1ccccc1-c1c[nH]c(=O)c2cc(OC(C)C(N)=O)ccc12 (stereo not shown) [Example 71, 2-((1-oxo-4-(o-tolyl)-1,2-dihydroisoquinolin-7-yl)oxy)propanamide] |
| 30 | Cc1ccccc1-c1c[nH]c(=O)c2cc(O[C@H](C)C(=O)N3CCC[C@H](C#N)C3)ccc12 [Example 77, (S)-1-((R)-2-((1-oxo-4-(o-tolyl)-1,2-dihydroisoquinolin-7-yl)oxy)propanoyl)piperidine-3-carbonitrile] |
| 30 | Cc1ccccc1-c1c[nH]c(=O)c2cc(O[C@H](C)C(=O)N3CCOCC3)ccc12 [Example 78, (R)-7-((1-morpholino-1-oxopropan-2-yl)oxy)-4-(o-tolyl)isoquinolin-1(2H)-one] |
| 50 | C[C@@H](Oc1ccc2c(-c3ccc(F)cc3Cl)c[nH]c(=O)c2c1)C(=O)N1CCOCC1 [Example 79, (R)-4-(2-chloro-4-fluorophenyl)-7-((1-morpholino-1-oxopropan-2-yl)oxy)isoquinolin-1(2H)-one] |
| 40 | Cc1ccccc1-c1c[nH]c(=O)c2cc(O[C@H](C)C(=O)N3CCC(F)(F)CC3)ccc12 [Example 80, (R)-7-((1-(4,4-difluoropiperidin-1-yl)-1-oxopropan-2-yl)oxy)-4-(o-tolyl)isoquinolin-1(2H)-one] |
| 30 | Cc1ccccc1-c1c[nH]c(=O)c2cc(O[C@H](C)C(=O)N3CCCC(F)(F)C3)ccc12 [Example 81, (R)-7-((1-(3,3-difluoropiperidin-1-yl)-1-oxopropan-2-yl)oxy)-4-(o-tolyl)isoquinolin-1(2H)-one] |
| 90 | C[C@@H](Oc1ccc2c(-c3ccc(F)cc3Cl)c[nH]c(=O)c2c1)C(=O)N1CCC[C@H](C(N)=O)C1 [Example 82, (S)-1-((R)-2-((4-(2-chloro-4-fluorophenyl)-1-oxo-1,2-dihydroisoquinolin-7-yl)oxy)propanoyl)piperidine-3-carboxamide] |
| 400 | Cc1cc(F)ccc1-c1c[nH]c(=O)c2cc(OCC#N)ccc12 [Example 83, 2-((4-(4-fluoro-2-methylphenyl)-1-oxo-1,2-dihydroisoquinolin-7-yl)oxy)acetonitrile] |
| 80 | C[C@@H](Oc1ccc2c(-c3ccc(F)cc3Cl)c[nH]c(=O)c2c1)C(=O)N1CCCC(F)(F)C1 [Example 84, (R)-4-(2-chloro-4-fluorophenyl)-7-((1-(3,3-difluoropiperidin-1-yl)-1-oxopropan-2-yl)oxy)isoquinolin-1(2H)-one] |
| 20 | Cc1ccccc1-c1c[nH]c(=O)c2cc(O[C@H](C)C(=O)N3C4CCC3COC4)ccc12 [Example 85, 7-(((2R)-1-(3-oxa-8-azabicyclo[3.2.1]octan-8-yl)-1-oxopropan-2-yl)oxy)-4-(o-tolyl)isoquinolin-1(2H)-one] |
| 20 | Cc1ccccc1-c1c[nH]c(=O)c2cc(O[C@H](C)C(=O)N3C4CCCC3CC4)ccc12 [Example 86, 7-(((2R)-1-(8-azabicyclo[3.2.1]octan-8-yl)-1-oxopropan-2-yl)oxy)-4-(o-tolyl)isoquinolin-1(2H)-one] |
| 200 | C[C@@H](Oc1ccc2c(-c3ccc(F)cc3Cl)c[nH]c(=O)c2c1)C(=O)N1CCC[C@H](C#N)C1 [Example 87, (S)-1-((R)-2-((4-(2-chloro-4-fluorophenyl)-1-oxo-1,2-dihydroisoquinolin-7-yl)oxy)propanoyl)piperidine-3-carbonitrile] |
| 400 | Cc1ccccc1-c1c[nH]c(=O)c2cc(O[C@H](C)C(=O)O)ccc12 [Example 88, (R)-2-((1-oxo-4-(o-tolyl)-1,2-dihydroisoquinolin-7-yl)oxy)propanoic acid] |
| 300 | Cc1ccc(-c2c[nH]c(=O)c3cc(OCC#N)ccc23)c(Cl)c1 [Example 89, 2-((4-(2-chloro-4-methylphenyl)-1-oxo-1,2-dihydroisoquinolin-7-yl)oxy)acetonitrile] |
| 1000 | C[C@@H](Oc1ccc2c(-c3ccc(F)cc3Cl)c[nH]c(=O)c2c1)C(=O)O [Example 90, (R)-2-((4-(2-chloro-4-fluorophenyl)-1-oxo-1,2-dihydroisoquinolin-7-yl)oxy)propanoic acid] |
| 300 | C[C@@H](Oc1ccc2c(-c3ccc(F)cc3Cl)c[nH]c(=O)c2c1)C(=O)N1CCC(F)(F)CC1 [Example 91, (R)-4-(2-chloro-4-fluorophenyl)-7-((1-(4,4-difluoropiperidin-1-yl)-1-oxopropan-2-yl)oxy)isoquinolin-1(2H)-one] |
| 80 | C[C@@H](Oc1ccc2c(-c3ccc(F)cc3Cl)c[nH]c(=O)c2c1)C(=O)N1C2CCC1COC2 [Example 92, 7-(((2R)-1-(3-oxa-8-azabicyclo[3.2.1]octan-8-yl)-1-oxopropan-2-yl)oxy)-4-(2-chloro-4-fluorophenyl)isoquinolin-1(2H)-one] |
| 30 | C[C@@H](Oc1ccc2c(-c3ccc(F)cc3Cl)c[nH]c(=O)c2c1)C(=O)N1C2CCCC1CC2 [Example 93, 7-(((2R)-1-(8-azabicyclo[3.2.1]octan-8-yl)-1-oxopropan-2-yl)oxy)-4-(2-chloro-4-fluorophenyl)isoquinolin-1(2H)-one] |
| 70 | Cc1ccccc1-c1c[nH]c(=O)c2cc(O[C@H](C)C(=O)N3CCC[C@H](C(N)=O)C3)ccc12 [Example 94, (S)-1-((R)-2-((1-oxo-4-(o-tolyl)-1,2-dihydroisoquinolin-7-yl)oxy)propanoyl)piperidine-3-carboxamide] |
| 20 | Cc1cccc(C)c1-c1c[nH]c(=O)c2cc(OCC#N)ccc12 [Example 99, 2-((4-(2,6-dimethylphenyl)-1-oxo-1,2-dihydroisoquinolin-7-yl)oxy)acetonitrile] |
| 100 | C[C@@H]1CN(C(=O)[C@@H](C)Oc2ccc3c(-c4ccc(F)cc4Cl)c[nH]c(=O)c3c2)C[C@H](C)O1 [Example 100, 4-(2-chloro-4-fluorophenyl)-7-(((R)-1-((2S,6R)-2,6-dimethylmorpholino)-1-oxopropan-2-yl)oxy)isoquinolin-1(2H)-one] |

From patent US20240391875A1, “ISOQUINOLINONES AND QUINOLINONES AS MODULATORS OF POLRMT” (Pretzel Therapeutics, Inc., priority 2021, published 2024)
